# Patent publication US12404269B2, “Aminoquinazolinone and aminoisoquinolinone derivatives and application thereof” (ZHEJIANG UNIVERSITY, priority 2018, dated 2025)
# What was measured:
# [1] = system: MCF7 (PIK3CA mut); assay: Tumor cell proliferation, CCK8 method, MCF7; format: cell-based, human; conditions: Homo sapiens; CCK8, MCF7; read-out: MCF7 (PIK3CA mut) proliferation IC50
# Protocol: (§1) The IC50 value was calculated using Graphpad Prism V5.0 software.
# [2] = system: KPL4 (PIK3CA mut); assay: Tumor cell proliferation, CCK8 method, KPL4; format: cell-based; conditions: CCK8, KPL4; read-out: KPL4 (PIK3CA mut) proliferation IC50
# Protocol: as §1
# [3] = system: ZR-75-1 (PTEN loss); assay: Tumor cell proliferation, CCK8 method, ZR-75-1; format: cell-based; conditions: Homo sapiens; CCK8, ZR-75-1
# Protocol: as §1
# [4] = system: SW48 (PIK3CA mut); assay: Tumor cell proliferation, CCK8 method, SW48; format: cell-based; conditions: Homo sapiens; CCK8, SW48; read-out: SW48 (PIK3CA mut) proliferation IC50
# Protocol: as §1
# [5] = molecular target: T1, PI3Kδ (Homo sapiens, UniProt O00329); assay: PI3Kδ molecular activity test (ADP-GLO); format: biochemical; conditions: recombinant protein
# T1 construct: purchased Carna Bioscience
# Protocol: (§2) Instrument: ELISA Reader Envision™ (PerkinElmer, USA)
# (§3) Materials: Human recombinant PI3K and PI3Kδ proteins, purchased from Carna Bioscience; ADP-GLO kit, purchased from Promega.
# (§4) Take the PI3Kα Molecular Activity Test as an Example to Describe the Text Method of the PI3K Subtypes
# (§5) PI3K-α recombinant protein and substrate ATP were diluted with kinase reaction buffer (50 mM Tris-HCl, pH 7.4, 2.1 mM DTT, 0.05% Tween-20, 10 mM MgCl2). […] The specific reaction system was 2% of DMSO, 0.8 ng/μL PI3K-α, and 100 μM ATP, the positive compound control groups and control wells were set, and there were 3 multiple-wells for each concentration of each sample. After incubating for 2 hours at room temperature, ADP-GLO Reagent and Kinase Detection Reagent were added respectively, and then Envision™ was used to detect the […] readings. The activity rate of the samples were calculated by the sample readings, and the calculation formula was: activity rate=(ODcompound−ODcontrol)/(ODDMSO−ODcontro) ×100%.
# [6] = molecular target: T2, PI3Kα (Homo sapiens, UniProt P42336); assay: PI3Kα molecular activity test (ADP-GLO); format: biochemical; conditions: for Selectivity (PI3Kδ IC50/PI3KαIC50): PI3Kδ IC50/PI3Kα IC50; for IC50: recombinant protein, 100 μM ATP, 2 hours at room temperature
# T2 construct: purchased Carna Bioscience
# Protocol: as §2, §3, §4, §5
# [7] = Pharmacokinetic determination in SD rats, tail vein injection; format: in vivo; conditions: rat, plasma; male SD rats, intravenous, 1 mg/kg
# Protocol: Healthy SD rats weighing 200±20 g, male, were randomly divided into groups with 6 rats in each group, and were administered by tail vein injection at a dose of 1 mg/kg. The blood sampling time points for pharmacokinetic analysis: 5 min, 15 min, 30 min, 2 h, 4 h, 6 h, 8 h, 24 h, and 48 h after administration. About 0.3 mL of whole blood was collected via the orbit and placed in a heparinized test tube, centrifugalized at 6000 rpm for 10 min to separate the plasma, and store at −80° C. for testing. The plasma concentrations of the each compounds were detected with an Agilent liquid mass spectrometry (LC-MS/MS, Agilent Jet Stream Electrometric spray ion), and the relevant pharmacokinetic parameters were calculated using the WinNonLin 7.0 pharmacokinetic software non-compartment model method.
# T1 sequence (O00329 whole entry): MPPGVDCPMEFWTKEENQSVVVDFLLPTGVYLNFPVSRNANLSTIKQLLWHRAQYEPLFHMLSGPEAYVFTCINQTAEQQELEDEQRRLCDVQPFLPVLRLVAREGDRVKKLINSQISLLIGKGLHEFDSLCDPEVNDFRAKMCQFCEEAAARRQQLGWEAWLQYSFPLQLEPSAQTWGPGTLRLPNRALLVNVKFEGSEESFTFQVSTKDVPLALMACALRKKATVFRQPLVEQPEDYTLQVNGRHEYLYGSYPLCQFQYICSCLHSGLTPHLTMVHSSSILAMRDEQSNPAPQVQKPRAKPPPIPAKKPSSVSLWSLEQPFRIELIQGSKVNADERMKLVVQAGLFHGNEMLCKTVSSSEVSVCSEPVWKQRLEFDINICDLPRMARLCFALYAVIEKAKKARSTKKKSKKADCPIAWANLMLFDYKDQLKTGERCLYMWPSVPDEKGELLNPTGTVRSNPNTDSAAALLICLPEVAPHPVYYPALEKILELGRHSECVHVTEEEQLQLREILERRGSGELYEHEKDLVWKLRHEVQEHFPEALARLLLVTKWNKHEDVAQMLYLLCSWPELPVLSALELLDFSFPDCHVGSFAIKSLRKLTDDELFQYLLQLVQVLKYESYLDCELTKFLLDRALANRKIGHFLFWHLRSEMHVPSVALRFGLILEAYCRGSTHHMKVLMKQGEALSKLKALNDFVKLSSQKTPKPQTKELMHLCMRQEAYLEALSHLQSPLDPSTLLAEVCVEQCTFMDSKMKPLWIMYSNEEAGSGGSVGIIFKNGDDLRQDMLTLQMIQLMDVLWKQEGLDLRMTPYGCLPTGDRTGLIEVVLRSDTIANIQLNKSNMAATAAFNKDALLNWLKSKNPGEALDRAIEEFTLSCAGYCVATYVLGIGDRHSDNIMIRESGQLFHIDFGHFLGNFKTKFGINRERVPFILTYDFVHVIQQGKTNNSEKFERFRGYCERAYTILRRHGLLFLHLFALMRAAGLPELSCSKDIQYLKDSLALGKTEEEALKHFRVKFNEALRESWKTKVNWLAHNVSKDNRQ
# T1 sequence (P27986 whole entry partner): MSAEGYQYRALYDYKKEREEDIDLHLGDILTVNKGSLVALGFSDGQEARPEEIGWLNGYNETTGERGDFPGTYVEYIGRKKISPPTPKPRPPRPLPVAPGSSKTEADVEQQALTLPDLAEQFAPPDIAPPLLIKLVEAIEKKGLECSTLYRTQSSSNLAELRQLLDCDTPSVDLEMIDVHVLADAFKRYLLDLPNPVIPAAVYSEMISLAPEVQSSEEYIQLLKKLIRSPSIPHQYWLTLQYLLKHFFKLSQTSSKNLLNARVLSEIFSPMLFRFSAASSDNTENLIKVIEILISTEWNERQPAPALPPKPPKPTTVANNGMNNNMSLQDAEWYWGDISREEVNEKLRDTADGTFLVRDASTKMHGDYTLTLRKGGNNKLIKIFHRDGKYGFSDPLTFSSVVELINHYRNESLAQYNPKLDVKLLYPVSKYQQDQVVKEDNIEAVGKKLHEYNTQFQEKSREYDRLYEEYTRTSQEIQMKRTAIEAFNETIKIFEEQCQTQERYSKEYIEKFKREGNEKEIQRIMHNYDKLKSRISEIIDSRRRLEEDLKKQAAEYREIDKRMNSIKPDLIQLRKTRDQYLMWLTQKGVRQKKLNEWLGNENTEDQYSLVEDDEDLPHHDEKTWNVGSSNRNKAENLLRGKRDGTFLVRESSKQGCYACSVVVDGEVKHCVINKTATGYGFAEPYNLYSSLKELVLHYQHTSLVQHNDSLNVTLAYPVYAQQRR
# T2 sequence (P42336 whole entry): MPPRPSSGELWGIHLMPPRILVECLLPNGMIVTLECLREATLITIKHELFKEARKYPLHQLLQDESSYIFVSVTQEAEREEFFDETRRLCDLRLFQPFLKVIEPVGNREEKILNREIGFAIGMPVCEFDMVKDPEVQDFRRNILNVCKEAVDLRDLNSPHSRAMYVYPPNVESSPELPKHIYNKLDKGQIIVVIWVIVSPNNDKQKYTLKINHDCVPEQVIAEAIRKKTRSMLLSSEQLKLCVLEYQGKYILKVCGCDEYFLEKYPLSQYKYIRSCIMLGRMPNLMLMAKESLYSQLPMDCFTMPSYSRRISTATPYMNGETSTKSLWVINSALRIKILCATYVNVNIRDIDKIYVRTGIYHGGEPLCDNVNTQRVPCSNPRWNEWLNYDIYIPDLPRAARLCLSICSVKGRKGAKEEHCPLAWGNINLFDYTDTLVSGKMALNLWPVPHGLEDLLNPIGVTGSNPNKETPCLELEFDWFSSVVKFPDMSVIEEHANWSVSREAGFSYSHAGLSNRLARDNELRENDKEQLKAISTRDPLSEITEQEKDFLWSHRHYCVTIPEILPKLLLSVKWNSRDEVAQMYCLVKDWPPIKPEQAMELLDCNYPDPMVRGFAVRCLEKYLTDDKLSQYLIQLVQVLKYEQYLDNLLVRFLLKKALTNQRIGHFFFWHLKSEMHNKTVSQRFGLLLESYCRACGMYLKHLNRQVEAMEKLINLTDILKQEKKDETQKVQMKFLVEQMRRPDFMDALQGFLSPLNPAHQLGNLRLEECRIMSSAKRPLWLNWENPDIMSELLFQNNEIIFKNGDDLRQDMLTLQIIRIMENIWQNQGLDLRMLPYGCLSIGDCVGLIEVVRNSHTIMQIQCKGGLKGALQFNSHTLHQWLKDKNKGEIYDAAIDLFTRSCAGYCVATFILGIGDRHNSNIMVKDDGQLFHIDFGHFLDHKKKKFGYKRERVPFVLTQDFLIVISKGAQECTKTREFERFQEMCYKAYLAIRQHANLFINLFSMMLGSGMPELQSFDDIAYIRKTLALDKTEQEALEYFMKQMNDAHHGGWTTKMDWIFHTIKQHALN
# T2 sequence (P27986 whole entry partner): as the sequence (P27986 whole entry partner) above
Compound,IC50 [1],IC50 [2],IC50 [3],IC50 [4],IC50 [5],Selectivity (PI3Kδ IC50/PI3KαIC50) [6],IC50 [6],Vd [7],clearance [7],half-life [7]
CCn1c(NC(=O)c2cnc(N)nc2)cc2c(OC)c(OCC(N)=O)ccc2c1=O [8b′-2],< 0.02 µM,0.02 to 0.2 µM,0.02 to 0.2 µM,0.02 to 0.2 µM,0.02 to 0.2 µM,III (“III” represents >10 times),< 0.02 µM,,,
Cn1c(NC(=O)c2cnc(N)nc2)nc2c3c(ccc2c1=O)OCCCCO3 [14a-4],0.02 to 0.2 µM,0.2 to 1 µM,0.2 to 1 µM,0.2 to 1 µM,< 0.02 µM,I (“I” represents <5 times),< 0.02 µM,,,
Cn1c(NC(=O)c2cnc(N)nc2)nc2c3c(ccc2c1=O)OCCCCCO3 [14a-5],0.02 to 0.2 µM,0.2 to 1 µM,0.2 to 1 µM,0.2 to 1 µM,0.02 to 0.2 µM,II (“II” represents 5-10 times),< 0.02 µM,,,
Cn1c(NC(=O)c2cnc(N)nc2)nc2c3c(ccc2c1=O)OCCCCCCO3 [14a-6],0.02 to 0.2 µM,0.2 to 1 µM,0.2 to 1 µM,0.2 to 1 µM,0.02 to 0.2 µM,II (“II” represents 5-10 times),< 0.02 µM,,,
Cn1c(NC(=O)c2cnc(N)nc2)nc2c3c(ccc2c1=O)OCCCCCCCO3 [14a-7],0.02 to 0.2 µM,0.2 to 1 µM,0.2 to 1 µM,0.2 to 1 µM,0.02 to 0.2 µM,II (“II” represents 5-10 times),< 0.02 µM,,,
Cn1c(NC(=O)c2cnc(N)nc2)nc2c3c(ccc2c1=O)OCCCCCCCCO3 [14a-8],< 0.02 µM,0.02 to 0.2 µM,0.02 to 0.2 µM,0.02 to 0.2 µM,< 0.02 µM,I (“I” represents <5 times),< 0.02 µM,,,
CCn1c(NC(=O)c2cnc(N)nc2)nc2c3c(ccc2c1=O)OCCCO3 [14b-3],,,,,,,,2.4 L/kg,38.3 mL/min/kg,4.7 h
CCn1c(NC(=O)c2cnc(N)nc2)nc2c3c(ccc2c1=O)OCCCCO3 [14b-4],< 0.02 µM,0.02 to 0.2 µM,0.2 to 1 µM,0.2 to 1 µM,0.02 to 0.2 µM,I (“I” represents <5 times),0.02 to 0.2 µM,,,
CCn1c(NC(=O)c2cnc(N)nc2)nc2c3c(ccc2c1=O)OCCCCCCCCO3 [14b-8],< 0.02 µM,0.02 to 0.2 µM,0.2 to 1 µM,0.2 to 1 µM,< 0.02 µM,I (“I” represents <5 times),< 0.02 µM,,,
CCn1c(NC(=O)c2cnc(N)nc2)nc2c3c(ccc2c1=O)OCCOCCOCCOCCO3 [14b-11],< 0.02 µM,0.02 to 0.2 µM,0.2 to 1 µM,0.2 to 1 µM,0.02 to 0.2 µM,I (“I” represents <5 times),0.02 to 0.2 µM,,,
CCn1c(NC(=O)c2cnc(N)nc2)cc2c3c(ccc2c1=O)OCO3 [14b′-1],,,,,,,,3.9 L/kg,65 mL/min/kg,4.2 h
CCn1c(NC(=O)c2cnc(N)nc2)cc2c3c(ccc2c1=O)OCCOCCOCCO3 [14b′-6],< 0.02 µM,0.02 to 0.2 µM,0.02 to 0.2 µM,0.02 to 0.2 µM,< 0.02 µM,I (“I” represents <5 times),< 0.02 µM,,,
